Measurements taken from ChEMBL document CHEMBL5053549, “Discovery of Potent and Novel Dual PARP/BRD4 Inhibitors for Efficient Treatment of Pancreatic Cancer” (J Med Chem, 2021).
Activity calls are given as the source filed them. The rule behind the calls is not given here.

Legend:
[1] = test system: Mus musculus; experiment: In vivo inhibition of PARP1 expression in human […] cells xenografted in BALB/c mouse assessed as reversal of Olaparib-induced PARP1 accumulation at 15 mg/kg, ip administered for 28 consecutive days in presence of 45 mg/kg Olaparib by Q-PCR analysis; type: functional, organism-based; conditions: time 28.0 day
[2] = test system: Mus musculus; experiment: In vivo inhibition of BRD4 expression in human SW1900 cells xenografted in BALB/c mouse assessed as reversal of Olaparib-induced BRD4 accumulation at 15 mg/kg, ip administered for 28 consecutive days in presence of 45 mg/kg Olaparib by Q-PCR analysis; type: functional, organism-based; conditions: time 28.0 day
[3] = test system: Mus musculus; experiment: In vivo inhibition of BRD4 expression in human SW1900 cells xenografted in BALB/c mouse assessed as reversal of Olaparib-induced BRD4 accumulation at 15 mg/kg, ip administered for 28 consecutive days in presence of 45 mg/kg Olaparib by Western blot analysis; type: functional, organism-based; conditions: time 28.0 day
[4] = test system: SW1990; experiment: Inhibition of homologous recombinant repair in human SW1990 cells assessed as reduction in Olaparib-induced FOXM1 expression at 1 uM after 4 days in presence of Olaparib by Q-PCR analysis; type: functional, cell-based; conditions: time 4.0 day
[5] = test system: SW1990; experiment: Inhibition of homologous recombinant repair in human SW1990 cells assessed as reduction in Olaparib-induced BRCA1 expression at 1 uM after 4 days in presence of Olaparib by Q-PCR analysis; type: functional, cell-based; conditions: time 4.0 day
[6] = test system: SW1990; experiment: Inhibition of homologous recombinant repair in human SW1990 cells assessed as reduction in Olaparib-induced Rad51 expression at 1 uM after 4 days in presence of Olaparib by Western blot analysis; type: functional, cell-based; conditions: time 4.0 day
[7] = test system: SW1990; experiment: Inhibition of homologous recombinant repair in human SW1990 cells assessed as reduction in BRCA1 expression at 4 uM after 4 days by Western blot analysis; type: functional, cell-based; conditions: time 4.0 day
[8] = test system: SW1990; experiment: Inhibition of homologous recombinant repair in human SW1990 cells assessed as reduction in Rad51 expression at 4 uM after 4 days by Q-PCR analysis; type: functional, cell-based; conditions: time 4.0 day
[9] = test system: SW1990; experiment: Inhibition of homologous recombinant repair in human SW1990 cells assessed as reduction in Rad51 expression at 4 uM after 4 days by Western blot analysis; type: functional, cell-based; conditions: time 4.0 day
[10] = molecular target: Poly [ADP-ribose] polymerase 1 (Homo sapiens, UniProt P09874); experiment: Inhibition of PARP1 (unknown origin) incubated for 45 mins in presence of biotinylated-NAD+ by microplate reader analysis
Chain of Poly [ADP-ribose] polymerase 1 (P09874 whole entry): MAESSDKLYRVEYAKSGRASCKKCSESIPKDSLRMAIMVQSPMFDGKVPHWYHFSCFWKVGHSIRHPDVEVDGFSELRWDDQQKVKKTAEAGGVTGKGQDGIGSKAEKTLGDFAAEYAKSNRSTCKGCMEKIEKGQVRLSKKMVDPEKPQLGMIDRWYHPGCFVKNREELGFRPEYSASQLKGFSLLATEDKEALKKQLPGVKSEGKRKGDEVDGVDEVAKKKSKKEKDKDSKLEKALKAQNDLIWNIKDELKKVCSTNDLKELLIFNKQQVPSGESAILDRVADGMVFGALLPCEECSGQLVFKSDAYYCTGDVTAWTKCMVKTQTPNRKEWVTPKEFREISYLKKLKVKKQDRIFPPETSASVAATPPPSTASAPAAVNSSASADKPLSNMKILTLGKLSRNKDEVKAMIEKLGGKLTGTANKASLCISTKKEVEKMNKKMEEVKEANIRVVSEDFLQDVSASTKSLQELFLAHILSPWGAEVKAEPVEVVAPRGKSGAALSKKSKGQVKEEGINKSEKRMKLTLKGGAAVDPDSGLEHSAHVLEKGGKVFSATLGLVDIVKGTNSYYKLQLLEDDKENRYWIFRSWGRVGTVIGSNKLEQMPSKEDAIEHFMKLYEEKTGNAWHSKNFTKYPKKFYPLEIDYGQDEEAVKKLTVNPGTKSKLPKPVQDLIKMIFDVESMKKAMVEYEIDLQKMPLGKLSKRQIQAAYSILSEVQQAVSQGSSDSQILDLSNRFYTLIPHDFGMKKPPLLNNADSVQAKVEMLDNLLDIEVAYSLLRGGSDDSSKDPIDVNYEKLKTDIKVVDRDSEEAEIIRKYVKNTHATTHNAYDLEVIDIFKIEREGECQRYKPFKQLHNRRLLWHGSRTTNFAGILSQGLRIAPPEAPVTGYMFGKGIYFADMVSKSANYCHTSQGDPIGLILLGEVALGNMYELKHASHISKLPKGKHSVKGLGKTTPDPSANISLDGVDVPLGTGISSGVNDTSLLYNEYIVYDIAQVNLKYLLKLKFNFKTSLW

[11] = molecular target: Bromodomain-containing protein 2 (Homo sapiens, UniProt P25440); experiment: Inhibition of recombinant BRD2 BD1 (unknown origin) incubated for 120 mins by TR-FRET assay
Chain of Bromodomain-containing protein 2 (P25440 whole entry): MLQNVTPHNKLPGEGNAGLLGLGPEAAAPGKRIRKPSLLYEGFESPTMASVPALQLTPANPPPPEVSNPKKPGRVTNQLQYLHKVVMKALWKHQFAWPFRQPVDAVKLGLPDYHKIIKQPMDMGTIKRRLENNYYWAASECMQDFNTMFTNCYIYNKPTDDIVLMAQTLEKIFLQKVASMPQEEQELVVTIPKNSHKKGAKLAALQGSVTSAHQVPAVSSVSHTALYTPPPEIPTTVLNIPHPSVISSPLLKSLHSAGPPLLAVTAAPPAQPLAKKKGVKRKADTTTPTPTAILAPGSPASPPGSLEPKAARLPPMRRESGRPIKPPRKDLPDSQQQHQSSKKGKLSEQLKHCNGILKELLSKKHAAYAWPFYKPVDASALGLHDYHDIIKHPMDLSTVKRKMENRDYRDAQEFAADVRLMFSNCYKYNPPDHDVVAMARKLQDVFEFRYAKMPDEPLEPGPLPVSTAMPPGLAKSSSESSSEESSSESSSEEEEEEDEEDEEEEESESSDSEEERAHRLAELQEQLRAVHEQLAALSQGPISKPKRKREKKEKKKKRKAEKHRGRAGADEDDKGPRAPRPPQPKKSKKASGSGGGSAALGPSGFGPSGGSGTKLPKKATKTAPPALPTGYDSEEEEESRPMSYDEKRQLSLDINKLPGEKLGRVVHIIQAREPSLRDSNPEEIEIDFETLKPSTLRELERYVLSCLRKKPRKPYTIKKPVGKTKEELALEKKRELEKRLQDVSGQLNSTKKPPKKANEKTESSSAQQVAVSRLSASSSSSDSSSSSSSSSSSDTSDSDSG

[12] = molecular target: Bromodomain testis-specific protein (Homo sapiens, UniProt Q58F21); experiment: Inhibition of recombinant BRDT BD2 (unknown origin) incubated for 120 mins by TR-FRET assay
[13] = molecular target: T1, Bromodomain-containing protein 1 (Homo sapiens, UniProt O95696); experiment: Inhibition of recombinant BRD1 (unknown origin) incubated for 120 mins by TR-FRET assay
T1 sequence (O95696 whole entry): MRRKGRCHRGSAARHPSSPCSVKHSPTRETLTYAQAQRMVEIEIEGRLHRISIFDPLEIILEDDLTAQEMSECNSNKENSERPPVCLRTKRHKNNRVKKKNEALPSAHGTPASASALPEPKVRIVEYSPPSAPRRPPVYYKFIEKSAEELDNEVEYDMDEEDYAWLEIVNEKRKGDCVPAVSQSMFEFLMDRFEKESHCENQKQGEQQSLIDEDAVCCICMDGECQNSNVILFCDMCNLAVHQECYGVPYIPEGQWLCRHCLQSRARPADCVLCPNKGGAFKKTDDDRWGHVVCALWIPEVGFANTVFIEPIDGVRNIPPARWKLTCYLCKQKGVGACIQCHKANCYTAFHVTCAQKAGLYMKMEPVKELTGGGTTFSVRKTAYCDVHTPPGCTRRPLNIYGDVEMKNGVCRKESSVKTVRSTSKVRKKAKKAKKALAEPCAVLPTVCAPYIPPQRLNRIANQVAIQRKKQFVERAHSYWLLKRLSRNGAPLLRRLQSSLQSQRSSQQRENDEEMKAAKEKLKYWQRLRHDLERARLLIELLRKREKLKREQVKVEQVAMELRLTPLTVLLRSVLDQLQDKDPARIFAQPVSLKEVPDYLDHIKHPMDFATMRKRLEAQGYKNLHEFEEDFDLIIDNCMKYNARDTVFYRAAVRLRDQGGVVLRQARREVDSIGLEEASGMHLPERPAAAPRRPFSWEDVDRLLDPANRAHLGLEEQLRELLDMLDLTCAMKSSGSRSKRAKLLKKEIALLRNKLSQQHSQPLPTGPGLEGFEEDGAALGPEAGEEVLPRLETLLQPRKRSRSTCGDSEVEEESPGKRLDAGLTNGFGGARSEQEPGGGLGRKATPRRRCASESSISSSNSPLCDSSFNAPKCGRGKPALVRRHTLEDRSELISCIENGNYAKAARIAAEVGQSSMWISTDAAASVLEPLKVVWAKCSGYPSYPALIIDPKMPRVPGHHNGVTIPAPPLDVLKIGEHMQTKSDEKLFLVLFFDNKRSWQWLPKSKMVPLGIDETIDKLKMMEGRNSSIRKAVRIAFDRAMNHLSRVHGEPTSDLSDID

[14] = molecular target: Bromodomain-containing protein 4 (Homo sapiens, UniProt O60885); experiment: Inhibition of BRD4 expression in human SW1990 cells at 1 uM after 4 days by Western blot analysis; type: cell-based; conditions: time 4.0 day
[15] = test system: Mus musculus; experiment: Toxicity in BALB/c mouse xenografted with human SW1990 cells assessed as lung damage at 45 mg/kg, ip administered for 28 consecutive days by H and E staining based […] microscopic analysis; type: organism-based; conditions: in vivo, 672 h, time 28 day
[16] = test system: SW1990; experiment: Effect on cell cycle progression in human SW1990 cells assessed as reduction in CDK6 expression at 1 to 2 uM after 4 days by Western blot analysis; type: functional, cell-based; conditions: dose 1-2 µM, time 4.0 day
[17] = test system: SW1990; experiment: Effect on cell cycle progression in human SW1990 cells assessed as reduction in PLK1 expression at 1 to 2 uM after 4 days by Q-PCR analysis; type: functional, cell-based; conditions: dose 1-2 µM, time 4.0 day
[18] = test system: SW1990; experiment: Induction of DNA damage in human SW1990 cells assessed as tail DNA at 1 to 4 uM incubated for 4 days in presence of 3 uM Olaparib by comet assay; type: functional, cell-based; conditions: dose 1-4 µM, time 4.0 day
[19] = test system: SW1990; experiment: Inhibition of homologous recombinant repair in human SW1990 cells assessed as reduction in FOXM1 expression at 1 to 2 uM after 4 days by Q-PCR analysis; type: functional, cell-based; conditions: dose 1-2 µM, time 4.0 day
[20] = test system: SW1990; experiment: Inhibition of homologous recombinant repair in human SW1990 cells assessed as reduction in c-Myc expression at 1 to 2 uM after 4 days by Western blot analysis; type: functional, cell-based; conditions: dose 1-2 µM, time 4.0 day
[21] = test system: SW1990; experiment: Induction of autophagy in human SW1990 cells xenografted in BALB/c mouse assessed as increase in ATG5 expression at 45 mg/kg, ip after 4 days by Q-PCR analysis; type: functional, organism-based; conditions: time 4.0 day
[22] = test system: SW1990; experiment: Induction of autophagy in human SW1990 cells xenografted in BALB/c mouse assessed as decrease in p62 expression at 45 mg/kg, ip after 4 days by Western blot analysis; type: functional, organism-based; conditions: time 4.0 day

SMILES: Cc1sc2c(c1C)C(c1ccc(Cl)cc1)=N[C@@H](CC(=O)OC(C)(C)C)c1nnc(C)n1-2
- Activity [1]: Active
- Activity [2]: Active
- Activity [3]: Active
- inhibition [4]: Active
- inhibition [5]: Active
- inhibition [6]: Active
- inhibition [7]: Active
- inhibition [8]: Active
- inhibition [9]: Active

SMILES: CC[C@@H]1C(=O)N(C)c2cnc(N(C)c3ccc(-c4nc5c(C(N)=O)cccc5[nH]4)cc3OC)nc2N1C1CCCC1
- IC50 [10]: 13 nM
- IC50 [11]: 381 nM
- IC50 [12]: 1400 nM
- IC50 [13]: 36500 nM
- inhibition [14]: Active
- Activity [15]: Non-Toxic
- Activity [16]: Active
- Activity [17]: Active
- Activity [18]: Active
- inhibition [19]: Active
- inhibition [20]: Active
- Activity [21]: Active
- Activity [22]: Active
